Converted amounts (≈) assume the structure as drawn.
Key:
Format in all cases: functional
Streptococcus pneumoniae [1] = assay: Antimicrobial activity against penicillin-resistant Streptococcus pneumoniae clinical isolates by broth microdilution method
Streptococcus pneumoniae [2] = assay: Antimicrobial activity against penicillin-resistant Streptococcus pneumoniae clinical isolates assessed as percent susceptible isolates by broth microdilution method
Streptococcus pneumoniae [3] = assay: Antimicrobial activity against penicillin-susceptible Streptococcus pneumoniae clinical isolates assessed as percent susceptible isolates by broth microdilution method
Streptococcus pneumoniae [4] = assay: Antimicrobial activity against penicillin-intermediate Streptococcus pneumoniae clinical isolates assessed as resistant isolates by broth microdilution method
Streptococcus pneumoniae [5] = assay: Antimicrobial activity against penicillin-intermediate Streptococcus pneumoniae clinical isolates assessed as percent susceptible isolates by broth microdilution method
Streptococcus pneumoniae [6] = assay: Antimicrobial activity against Streptococcus pneumoniae clinical isolates assessed as resistant isolates by broth microdilution method
Streptococcus pneumoniae [7] = assay: Antimicrobial activity against penicillin-intermediate Streptococcus pneumoniae clinical isolates by broth microdilution method
Streptococcus pneumoniae [8] = assay: Antimicrobial activity against penicillin-susceptible Streptococcus pneumoniae clinical isolates by broth microdilution method
Streptococcus pneumoniae [9] = assay: Antimicrobial activity against penicillin-resistant Streptococcus pneumoniae clinical isolates assessed as resistant isolates by broth microdilution method
Streptococcus pneumoniae [10] = assay: Antimicrobial activity against Streptococcus pneumoniae clinical isolates assessed as percent susceptible isolates by broth microdilution method
Streptococcus pneumoniae [11] = assay: Antimicrobial activity against Streptococcus pneumoniae clinical isolates by broth microdilution method
Streptococcus pneumoniae [12] = assay: Antimicrobial activity against penicillin-susceptible Streptococcus pneumoniae clinical isolates assessed as resistant isolates by broth microdilution method

Structure (SMILES)	MIC90 (Streptococcus pneumoniae [1]) [µg/mL]	Activity (Streptococcus pneumoniae [2]) [%]	Activity (Streptococcus pneumoniae [3]) [%]	Percent of isolates resistant (Streptococcus pneumoniae [4]) [%]	Activity (Streptococcus pneumoniae [5]) [%]	Resistant isolates (Streptococcus pneumoniae [6]) [%]	MIC90 (Streptococcus pneumoniae [7]) [µg/mL]	MIC90 (Streptococcus pneumoniae [8]) [µg/mL]	Percent of isolates resistant (Streptococcus pneumoniae [9]) [%]	Activity (Streptococcus pneumoniae [10]) [%]	MIC90 (Streptococcus pneumoniae [11]) [µg/mL]	Percent of isolates resistant (Streptococcus pneumoniae [12]) [%]	MIC (Streptococcus pneumoniae [8]) [µg/mL]
CO/N=C(\C(=O)N[C@@H]1C(=O)N2C(C(=O)O)=C(CSc3nc(=O)c(O)nn3C)CS[C@H]12)c1csc(N)n1 [CEFTRIAXONE]	2 (≈ 3.61 µM)	80.4	100	0.5	99.5	1.2	0.5 (≈ 0.902 µM)	0.03 (≈ 0.0541 µM)	7.4	97	1 (≈ 1.8 µM)	0	
CO/N=C(\C(=O)N[C@@H]1C(=O)N2C(C(=O)OC(C)OC(C)=O)=C(COC(N)=O)CS[C@H]12)c1ccco1 (stereo partly specified) [CEFUROXIME AXETIL]	> 4	0	100	20.4	56	18.9	4 (≈ 7.84 µM)	≤ 0.12	99.3	75.9	4 (≈ 7.84 µM)	0	≤ 0.12
CC[C@H]1OC(=O)[C@H](C)C(=O)[C@H](C)[C@@H](O[C@@H]2O[C@H](C)C[C@H](N(C)C)[C@H]2O)[C@](C)(OC)C[C@@H](C)C(=O)[C@H](C)[C@H]2N(CCCCn3cnc(-c4cccnc4)c3)C(=O)O[C@]12C [TELITHROMYCIN]	0.5 (≈ 0.616 µM)		100	0	100	0	0.25 (≈ 0.308 µM)	0.015 (≈ 0.0185 µM)	0	100	0.25 (≈ 0.308 µM)	0	

Source: ChEMBL document CHEMBL1649268, “Comparative in vitro activity profile of oritavancin against recent gram-positive clinical isolates” (2009)
